# How the values were obtained:
# CD19+ B cells = assay: Human B cell proliferation assay (3H-thymidine incorporation); settings: 2 μg/ml; for B cell proliferation, in words: 48 h plus 8 h 3H-thymidine pulse; for cpm1 / cpm2 / cpm3 / mean cpm / mean of both: B cells
# human PBMCs = assay: Human PBMC cytokine response assay (IFN-γ and IFN-α in cell-free medium by ELISA), with or without cPLGA; format: cell-based; settings: for IFN-γ (pg/ml) 28065: donor 28065 (high background), 1000 = outside assay limits; for IFN-α (pg/ml) 28065: donor 28065; for IFN-α (pg/ml) 28066 / IFN-γ (pg/ml) 28066: donor 28066; for IFN-α (pg/ml) 28067 / IFN-γ (pg/ml) 28067: donor 28067; for IFN-α (pg/ml) 28068 / IFN-γ (pg/ml) 28068: donor 28068;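 as to IFN-α (pg/ml) mean: 20 µg/mL compound for 24 hours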;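 as to IFN-γ (pg/ml) mean: 20 µg/mL compound for 24 hours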
# PBMCs = assay: Human PBMC proliferation assay (3H-thymidine incorporation); format: cell-based; settings: Experiment A; for mean cpm: 2 μg/ml; for mean of both: mean of Donors 146 and 147, 2 μg/ml
# [1] = mean of Donors 146 and 147, Experiment A
# [2] = 20 ug/ml, 24 h, + PLGA = premixed with 100 μg/ml cPLGA
# [3] = mean of donors 28065-28068, 20 ug/ml, 24 h, + PLGA = premixed with 100 μg/ml cPLGA
# [4] = Table 24, mean of donors 28234-28237
# [5] = mean of donors 110, 112, 119, 120, Table 14
# [6] = mean of donors 28185-28188, Table 15
substance,measurement,setting,value
"5′-TGCTGC-3′-HEG-5′-AGCTTGC-3′-HEG-5′-AGATGAT-3′ [Compound M-1, reference compound]","B cell proliferation, in words",CD19+ B cells,little to no B cell proliferation
same,cpm1,"CD19+ B cells; Donor 146, Experiment A",1514 cpm
same,cpm2,"CD19+ B cells; Donor 146, Experiment A",2815 cpm
same,cpm3,"CD19+ B cells; Donor 146, Experiment A",1173 cpm
same,mean cpm,"CD19+ B cells; Donor 146 mean, Experiment A",1834 cpm
same,cpm1,"CD19+ B cells; Donor 147, Experiment A",1679 cpm
same,cpm2,"CD19+ B cells; Donor 147, Experiment A",1667 cpm
same,cpm3,"CD19+ B cells; Donor 147, Experiment A",1436 cpm
same,mean cpm,"CD19+ B cells; Donor 147 mean, Experiment A",1594 cpm
same,mean of both,CD19+ B cells; [1],1714 cpm
same,IFN-α,"human PBMCs; Table 10, donor 28042",0 pg/mL
same,IFN-γ,"human PBMCs; Table 10, donor 28042",45 pg/mL
same,IFN-α,"human PBMCs; Table 10, donor 28043",0 pg/mL
same,IFN-γ,"human PBMCs; Table 10, donor 28043",29 pg/mL
same,IFN-α,"human PBMCs; Table 10, donor 28044",13 pg/mL
same,IFN-γ,"human PBMCs; Table 10, donor 28044",7 pg/mL
same,IFN-α,"human PBMCs; Table 10, donor 28045",2 pg/mL
same,IFN-γ,"human PBMCs; Table 10, donor 28045",3 pg/mL
same,IFN-α mean,"human PBMCs; Table 10, mean of donors",4 pg/mL
same,IFN-γ mean,"human PBMCs; Table 10, mean of donors",21 pg/mL
same,IFN-γ (pg/ml) 28065,human PBMCs; [2],157 pg/mL
same,IFN-α (pg/ml) 28065,human PBMCs; [2],0 pg/mL
same,IFN-α (pg/ml) 28066,human PBMCs; [2],0 pg/mL
same,IFN-γ (pg/ml) 28066,human PBMCs; [2],1 pg/mL
same,IFN-α (pg/ml) 28067,human PBMCs; [2],3 pg/mL
same,IFN-γ (pg/ml) 28067,human PBMCs; [2],40 pg/mL
same,IFN-α (pg/ml) 28068,human PBMCs; [2],0 pg/mL
same,IFN-γ (pg/ml) 28068,human PBMCs; [2],2 pg/mL
same,IFN-α (pg/ml) mean,human PBMCs; [3],1 pg/mL
same,IFN-γ (pg/ml) mean,human PBMCs; [3],50 pg/mL
same,"immunomodulatory activity (IFN-γ / IFN-α secretion), in words",human PBMCs; used alone (no cPLGA),did not show activity
same,cpm1,"PBMCs; Donor 146, 2 μg/ml",8753 cpm
same,cpm2,"PBMCs; Donor 146, 2 μg/ml",5203 cpm
same,cpm3,"PBMCs; Donor 146, 2 μg/ml",4496 cpm
same,mean cpm,PBMCs; Donor 146 mean,6151 cpm
same,cpm1,"PBMCs; Donor 147, 2 μg/ml",1034 cpm
same,cpm2,"PBMCs; Donor 147, 2 μg/ml",3298 cpm
same,cpm3,"PBMCs; Donor 147, 2 μg/ml",1674 cpm
same,mean cpm,PBMCs; Donor 147 mean,2002 cpm
same,mean of both,PBMCs,4076 cpm
(5′-TCGTCGA-3′)2-glycerol-5′-TCGTCGA-3′ [Compound C-28],"B cell proliferation, in words",CD19+ B cells,cause B cells to proliferate
same,cpm1,"CD19+ B cells; Donor 146, Experiment A",50999 cpm
same,cpm2,"CD19+ B cells; Donor 146, Experiment A",54630 cpm
same,cpm3,"CD19+ B cells; Donor 146, Experiment A",46418 cpm
same,mean cpm,"CD19+ B cells; Donor 146 mean, Experiment A",50682 cpm
same,cpm1,"CD19+ B cells; Donor 147, Experiment A",65593 cpm
same,cpm2,"CD19+ B cells; Donor 147, Experiment A",51040 cpm
same,cpm3,"CD19+ B cells; Donor 147, Experiment A",50357 cpm
same,mean cpm,"CD19+ B cells; Donor 147 mean, Experiment A",55663 cpm
same,cpm1,"CD19+ B cells; donor 121, Experiment B",35393 cpm
same,cpm2,"CD19+ B cells; donor 121, Experiment B",26954 cpm
same,cpm3,"CD19+ B cells; donor 121, Experiment B",26780 cpm
same,mean cpm,"CD19+ B cells; donor 121 mean, Experiment B",29709 cpm
same,cpm1,"CD19+ B cells; donor 194, Experiment B",21588 cpm
same,cpm2,"CD19+ B cells; donor 194, Experiment B",13691 cpm
same,cpm3,"CD19+ B cells; donor 194, Experiment B",15691 cpm
same,mean cpm,"CD19+ B cells; donor 194 mean, Experiment B",16990 cpm
same,mean of both,CD19+ B cells; [1],53173 cpm
same,mean of both,"CD19+ B cells; mean of donors 121 and 194, Experiment B",23350 cpm
same,IFN-α,"human PBMCs; Table 9, donor 28089",0 pg/mL
same,IFN-γ,"human PBMCs; Table 9, donor 28089",14 pg/mL
same,IFN-α,"human PBMCs; Table 9, donor 28090",64 pg/mL
same,IFN-γ,"human PBMCs; Table 9, donor 28090",15 pg/mL
same,IFN-α,"human PBMCs; Table 9, donor 28098",42 pg/mL
same,IFN-γ,"human PBMCs; Table 9, donor 28098",183 pg/mL
same,IFN-α,"human PBMCs; Table 9, donor 28099",67 pg/mL
same,IFN-γ,"human PBMCs; Table 9, donor 28099",45 pg/mL
same,IFN-α mean,"human PBMCs; Table 9, mean of donors",43 pg/mL
same,IFN-γ mean,"human PBMCs; Table 9, mean of donors",64 pg/mL
same,IFN-α,"human PBMCs; Table 24, donor 28234",16 pg/mL
same,IFN-γ,"human PBMCs; Table 24, donor 28234",10 pg/mL
same,IFN-α,"human PBMCs; Table 24, donor 28235",16 pg/mL
same,IFN-γ,"human PBMCs; Table 24, donor 28235",14 pg/mL
same,IFN-α,"human PBMCs; Table 24, donor 28236",16 pg/mL
same,IFN-γ,"human PBMCs; Table 24, donor 28236",88 pg/mL
same,IFN-α,"human PBMCs; Table 24, donor 28237",16 pg/mL
same,IFN-γ,"human PBMCs; Table 24, donor 28237",1229 pg/mL
same,IFN-α mean,human PBMCs; [4],16 pg/mL
same,IFN-γ mean,human PBMCs; [4],335 pg/mL
same,IFN-α,"human PBMCs; donor 110, Table 14",38 pg/mL
same,IFN-γ,"human PBMCs; donor 110, Table 14",5564 pg/mL
same,IFN-α,"human PBMCs; donor 112, Table 14",4 pg/mL
same,IFN-γ,"human PBMCs; donor 112, Table 14",52 pg/mL
same,IFN-α,"human PBMCs; donor 119, Table 14",56 pg/mL
same,IFN-γ,"human PBMCs; donor 119, Table 14",44 pg/mL
same,IFN-α,"human PBMCs; donor 120, Table 14",26 pg/mL
same,IFN-γ,"human PBMCs; donor 120, Table 14",60 pg/mL
same,IFN-γ (pg/ml) 28065,human PBMCs; [2],1082 pg/mL
same,IFN-α (pg/ml) 28065,human PBMCs; [2],3 pg/mL
same,IFN-α (pg/ml) 28066,human PBMCs; [2],0 pg/mL
same,IFN-γ (pg/ml) 28066,human PBMCs; [2],5 pg/mL
same,IFN-α (pg/ml) 28067,human PBMCs; [2],29 pg/mL
same,IFN-γ (pg/ml) 28067,human PBMCs; [2],42 pg/mL
same,IFN-α (pg/ml) 28068,human PBMCs; [2],52 pg/mL
same,IFN-γ (pg/ml) 28068,human PBMCs; [2],410 pg/mL
same,IFN-a,"human PBMCs; donor 28185, Table 15",14 pg/mL
same,IFN-g,"human PBMCs; donor 28185, Table 15",162 pg/mL
same,IFN-a,"human PBMCs; donor 28186, Table 15",4 pg/mL
same,IFN-g,"human PBMCs; donor 28186, Table 15",24 pg/mL
same,IFN-a,"human PBMCs; donor 28187, Table 15",0 pg/mL
same,IFN-g,"human PBMCs; donor 28187, Table 15",75 pg/mL
same,IFN-a,"human PBMCs; donor 28188, Table 15",4 pg/mL
same,IFN-g,"human PBMCs; donor 28188, Table 15",5 pg/mL
same,IFN-α (pg/ml) mean,human PBMCs; [5],31 pg/mL
same,IFN-γ (pg/ml) mean,human PBMCs; [5],1430 pg/mL
same,IFN-α (pg/ml) mean,human PBMCs; [3],21 pg/mL
same,IFN-γ (pg/ml) mean,human PBMCs; [3],385 pg/mL
same,IFN-a (pg/ml) mean,human PBMCs; [6],6 pg/mL
same,IFN-g (pg/ml) mean,human PBMCs; [6],66 pg/mL
same,IFN-a (pg/ml) ×2,"human PBMCs; mean ×2, Table 15",11 pg/mL
same,IFN-g (pg/ml) ×4,"human PBMCs; mean ×4, Table 15",266 pg/mL
same,"IFN-α induction, in words",human PBMCs; used alone,HEG (C-94)>TEG (C-103)>C3 (C-104)=no linker (C-28)
same,cpm1,"PBMCs; Donor 146, 2 μg/ml",94977 cpm
same,cpm2,"PBMCs; Donor 146, 2 μg/ml",121595 cpm
same,cpm3,"PBMCs; Donor 146, 2 μg/ml",84977 cpm
same,mean cpm,PBMCs; Donor 146 mean,100516 cpm
same,cpm1,"PBMCs; Donor 147, 2 μg/ml",103916 cpm
same,cpm2,"PBMCs; Donor 147, 2 μg/ml",91439 cpm
same,cpm3,"PBMCs; Donor 147, 2 μg/ml",100905 cpm
same,mean cpm,PBMCs; Donor 147 mean,98753 cpm
same,mean of both,PBMCs,99635 cpm
